The record followed here is patent US20060270643A1, “Hyfroxyflutamide induced pathways related to androgen receptor negative prostate cancer cells” (priority 2002, published 2006).

“And” between values parts separate entries of the source, which are not always exact repeats. Identical values can stand only once. “Also recorded” adds a separate entry of the source. Like-named read-outs stand apart in the source and are kept apart here.

The test system of assay [1] is association between Ras and Raf. Put plainly: Ras-Raf immunoprecipitation assay in DU145 cells. Type of assay: cell-based, human. The following applies: lysates of treated DU145 cells; 1 μM HF, 10 ng/ml EGF, 1 μM 9-cis retinoic acid. The procedure: 8. […] (A) DU145 cells were treated with ethanol (lane 1), 10 ng/ml EGF (lane 2), 1 μM 9-cis retinoic acid (lane 3), and 1 μM HF (lane 4) after 24 hour serum starvation. Cells were lysed and 300 μg of total protein were immunoprecipitated with anti-Ras antibody, pulled-down by a protein A/G agarose beads, and detected with an anti-Raf antibody. (B) DU145 cells were transfected with pCDNA3.1 or pCDNA3.1-Ras N17 as indicated. After 24 hours serum starvation, the cells were treated with different ligands for 20 min, and then harvested. Western blots were performed with antibodies against phosphoERK1/2 and ERK1/2. The density of phospho-ERK1/2 shown as Optical Density (OD) were determined by the Versa Doc Imaging System (Bio-Rad) and quantified by Quantity One software.
200. Serum-stared and treated DU145 cells were lysed with RIPA buffer for 30 min on ice. Lysates were then centrifuiged at 12,000 g for 10 min at 4° C. and protein concentrations were determined by the Bradford assay. 500 μg of cell lysates were incubated for 4 hours with either anti-Ras or anti-EGFR antibody (1/100, Santa Cruz Biotechnology) to the protein-antibody mixture and then added in 20 μl of protein A/G plus-agarose (Santa Cruz Biotechnology) for another 4 hours incubation with constant rotation. The immunoprecipitates were washed four times with cold PBS, resolved by SDS-PAGE, and immunoblotted by anti-Raf-1 antibody, or anti-phospho-tyrosine monoclonal antibody (Oncogene Research, Calbiochem, La Jolla, Calif.). The results were visualized by chemiluminescence.

The test system of assay [2] is cyclin D1 promoter (−1745D1-Luc). Put plainly: Cyclin D1 promoter luciferase reporter assay in DU145 cells. Type of assay: cell-based, human. The following applies: 10^−6 M HF or 30 ng/ml EGF. The method, then:
(§1) 11. […] (A) DU145 cells were treated with HF (1 μM), or EGF (10 ng/ml), or ethanol vehicle for 12 hours after the serum starvation. Cells were lysed and blotted with anti-cyclin D1 antibody. (B) DU145 cells were serum starved for 24 hours and then co-transfected DN Ras or DN Raf together with […] Luc reporter with SuperFect (Qiagen). After 4 hours, the medium was changed to normal medium (10% serum) for 18 hours and then changed to serum starvation condition for another 24 hours and then treated with HF, EGF, or ethanol vehicle control. Cells were lysed for luciferase activity analysis.
197. DU145 cells were obtained from American Type Culture Collection and cultured in Dubecco's modified Eagles's medium (DMEM) supplemented with 10% fetal bovine serum (FBS). Cells (1×10^5) were seeded in 35 mm plates and transfected with the SuperFect transfection reagent (Qiagen, Chatworth, Calif.). After 4 hours the media were changed to serum-free DMEM media for 24 hours. Thereafter, the cells were treated with HF, EGF, and vehicle for 18 hours and then lysed for luciferase assay. Luciferase activity was normalized for taansfection efficiency using pRL-TK as an internal control. Luciferase assays were performed using dual-luciferase reporter system (Promega, Madison, Wis.).

Another assay concerns DU145 cells. Put plainly: Cell proliferation assay (hemacytometer counting). Type of assay: cell-based, human. The method, then:
10. […] (A) DU145 cells were seeded in 10% FBS DMEM medium and 24 hours later cells were changed to serum free medium. 48 hours later changed the medium to 0.5% FBS medium and treated with ethanol, HF, or EGF. Every 24 hours, the cells were counted by hemacytometer. […]. […] (B) DU145 cells were seeded and transfected with anti-sense oligonucleotide of Ras (IRIS 2503: 5′-[…]-3′), Raf (IIUS: 5132:5′-[…]-3′) and HIV (5′-[…]-3′) (Chen, G., Oh, S., Monia B. P., and Stacey, D. W., J. Biol. Chem., 271: 28259-28265, 1996, Monia, B. P., et al., Proc. Natl. Acad. Sci. USA, 93: 15481-15484, 1996.) by SuperFect (Qiagen). 24 hour after serum starvation, we changed the cells to medium containing 0.5% FBS, and treated the cells as described in A. Cells were counted by hemacytometer every 24 hours. The cell lysate were blotted with anti-H-Ras and Raf antibodies and β-actin was blotted for loading control.
199. DU145 cells were seeded at 2×10^4/ml on 35 mm plates and allowed to attach overnight. Cells were kept in serum-free DMEM medium for 24 hours, and then media were replaced with DMEM-0.5% FBS and treated as indicated. Cells were trypsinized and counted with a hemacytometer at different times after treatments. For the antisense oligonuleotide experiments, cells were incubated with a fixed ratio of oligonucleotide versus SuperFect (2.5 μl of SuperFect per 100 nM oligo) for 4 hours and then the oligo-containing medium was replaced with DMEM-0.5% FBS. Cells were trypsinized and counted by hemacytometer at indicated times.

The next assay relates to cyclin D1. The experiment in a line: Western blot of cyclin D1 and cell cycle related gene products in DU145 cells. Type of assay: cell-based, human. The procedure: as §1
Assay [3] relates to p44/42 MAP kinase (ERK1 and 2). Put plainly: Immunoblot of phosphorylated p44/42 MAP kinase in DU145 cells. Type of assay: cell-based, human. The method, then: 7. […] (A) DU145 cells were grown in 100 mm dishes and serum-starved for 24 hours. The cells were lysed on ice. Equal amounts of cell lysate were analyzed by 12% SDS-PAGE and subsequent immunoblotted with anti-phospho ERK1/2 and anti-ERK1/2 antibodies. (B) Different cell lines, at 70 to 80% confluence, were lysed and immunoblotted with anti-AR polyclonal antibody, NH27. (C) DU145 cells were pre-incubated with MEK1/2 inhibitor U0126, or U0124 before HF, EGF, and ethanol treatment. Cells were lysed and immunoblotted with anti-phospho ERK1/2 and anti-ERK1/2 antibodies. (D) CWR2 and (E) PC3-AR cells were grown in 100 mm dishes and serum-starved for 24 hours. The cells were treated with HF, EGF or ethanol vehicle for 15 mins and immunoblotted with anti-phospho-ERK1/2 and anti-ERK1/2 antibodies. […] MMTV-ARE-Luc reporter plasmid was cotransfected with or without pSG5AR into DU145 cells. After 18 hours, cells were treated with 1 nM DHT, 1 μM HF or both for another 18 hours, and then harvested. Cell lysates were collected and assayed for the luciferase activity.
9. […] After 15 min treatment, cells were lysed and immunoblotted with anti-phospho ERK1/2 and antiERK1/2 antibodies. […] EGFR was immunoprecipitated from the cell lysates, and their phosphotyrosine level was determined by anti-phosphotyrosine antibody. All the results were visualized using enhanced chemiluminescence.
198. This assay uses a polyclonal antibody specific against the activated p44/42 MAP kinases (Cell Signaling Technology, Beverly, Mass.), which detects p44 and p42 MAP kinase (ERK1 and 2) only when catalytically activated by dual phosphorylation at Thr202 and Tyr204. DU145 cells were seeded at 1×10^5 cells per 100 mm plate and allowed to attach overnight and then the media were replaced with serum-free DMEM media for 24 hours. The cells were pre-treated with MAP kinase inhibitors, EGFR antibodies, or cycloheximide for 1 hour and followed by HF, EGF, or vehicle treatment. Cells were washed twice with PBS, harvested at indicated times, and lyzed with RIPA buffer for 30 min on ice. The protein concentrations were determined by Bradford assay, and equal amount of protein was resolved by SDS-PAGE. Gels were transferred, immunoblotted with p44/42 MAP kinase antibody (1/1000), and then incubated with secondary antibody. Proteins were visualized by the enhanced chemiluminescence system (NEN™ Life Science Products, Boston, Mass.). P44/42 MAP kinase (total ERK1/2) was blotted as a control.

The test system of another assay is phospho-ERK1/2. Put plainly: Immunocytochemical staining of phospho-ERK1/2 in patients' prostate tumor biopsies. The following applies: recurrent tumors of four patients progressing while receiving flutamide (androgen ablation therapy); one value per patient. Type of assay: in vivo, human. The method, then:
6. […] Prostate tumor tissue sections from the same patient with either the pre- (A and C) and post-androgen ablation plus flutamide therapy (B and D), were immunohistochemically stained for phosphorylated ERK1/2. Sections were counterstained with Mayer Hematoxylin Blue (A and B). Original magnification ×400.
196. Immunocytochemical staining were performed on formalin-fixed, paraffin-embedded tissue sections using antibodies ERK1,and ERK2 (SC-94, and SC-154, 1/400 dilution), and phospho-ERK1/2 (SC-7383, 1/50 dilution) all from Santa Cruz (Santa Cruz, Calif.). Sections were cut at 4 to 5 microns and deparaffinized according to established procedures and quenched with 3% hydrogen peroxide for 6 min. Antigen unmasking with heat retrieval in citrate buffer/pH 6.0 was accomplished by placing slides in a microwave (1500 watts) pressure cooker for 30 minutes. Slides were rinsed and stained for 45 minutes with primary antibody, and then incubated for 20 min with secondary antibody and streptavidin-HRP. Slides were developed with AEC+, rinsed and counterstained with Mayer Hematoxylin Blue in 0.3% ammonia water.
201. […] Each slide was examined and scored the number of the cells stained positive for phosph-ERK1/2 under the 100× high power field. […]

Assay [4] has as its system AR. The experiment in a line: AR phosphorylation in COS-1 cells transfected with wtAR or mtAR. Type of assay: cell-based. The procedure:
(§2) 14. […] Anti-pSer, anti-phosphoserine antibody. […] Total AR protein was blotted using an anti-AR antibody (AR), and AR phosphorylation was detected using an anti-phospho-AR (S210) antibody (pAR). […] The cells were then harvested for immunoprecipitation with anti-AR antibody and Western blot analysis. NH27, anti-AR antibody, anti-pSer, anti-phosphoserine antibody.
(§3) 219. The imrnunoprecipitation and Western blotting were performed as previously described (Lin, H. K., et al. (2001) Proc Natl Acad Sci USA 98, 7200-7205). The cell extracts (1 mg) were immunoprecipitated with the indicated antibody. The immunocomplexes were subjected to 8% SDS-PAGE and immunoblotted with the indicated antibody.

The subject of assay [5] is AR. The experiment in a line: AR phosphorylation in LNCaP cells (immunoprecipitation / Western blot). Type of assay: cell-based, human. The procedure: as §2, §3

In the case of EGF: epidermal growth factor, the “Raf detected in the Ras immunocomplex” value in assay [1] is “detected”. In assay [2], the “induction of cyclin D1 promoter (−1745D1-Luc) activity” value was “about 2 fold”. For the same molecule, the cell proliferation entry is “no significant stimulation of cell proliferation” in the assay on DU145 cells (cells maintained in 10% FBS medium (data not shown)) and “stimulate the DU 145 cell growth significant; also recorded: can promote cell proliferation” with DU145 cells (low serum (0.5% FBS) after serum starvation). For the same molecule, the “cyclin D1 expression” value in the assay with cyclin D1 (HF (1 μM) or EGF (10 ng/ml) for 12 hours after serum starvation) is “induced”. In the assay on cyclin D1 (after HF- or EGF-treatment), the “other cell cycle related gene products (p27, p21, Ki67, PCNA)” value is “no significant change”.

Turning to `C[C@@H]1C[C@@H]([C@H](O)CC2CC(=O)NC(=O)C2)C(=O)[C@@H](C)C1` [cycloheximide], the “block of MAP kinase activation mediated by HF or EGF” value in assay [3] (Ten ng/ml cycloheximide, 1 hour pre-treatment) is “failed to block MAP kinase activation”. For the same molecule, the “MAP kinase activation with ethanol added to cycloheximide treatment” value in assay [3] (no HF or EGF (lane 7)) is “slight increment”.

In the case of `CC(C)C(=O)Nc1ccc([N+](=O)[O-])c(C(F)(F)F)c1` [Flutamide], in the assay on phospho-ERK1/2, the “cells stained positive for phospho-ERK1/2” value is 30% and 41% and 52% and 45%.

As to `CC1=C(/C=C/C(C)=C\C=C\C(C)=C\C(=O)O)C(C)(C)CCC1` [9 cis-retinoic acid, 9-cis retinoic acid], the “Raf detected in the Ras immunocomplex” value in assay [1] was “not”.

With IGF-1: insulin-like growth factor-1, the “phosphorylation of mutant AR (mtAR) (S210A/S790A)” value in the assay with AR [4] (IGF-1) is recorded as “did not induce phosphorylation”. Also, in the assay on AR [4] (IGF-1 for 4 hours), the “wild-type (wtAR) phosphorylation” value is “induced wild-type (wtAR) phosphorylation”. The AR phosphorylation result with AR [5] (LNCaP cells (P38), IGF-1 for 4 hours) is reported as “induced AR phosphorylation”. In the assay on AR [5] (LNCaP cells treated with IGF-1, site-specific anti-phosphoserine AR antibody), the “AR phosphorylation at S210” value is recorded as “detected”.

For `CS/C(N)=C(C#N)/C(C#N)=C(\N)SC` [U0124], in assay [3] (DU145 cells pre-incubated with inhibitor before HF treatment), the “block of HF-mediated MAP kinase activation” value is on record as “not”.

Take `N#CC(=C(/N)Sc1ccccc1N)/C(C#N)=C(\N)Sc1ccccc1N` [U0126]: the “block of HF-mediated MAP kinase activation” value in assay [3] is reported as “can block HF-mediated MAP kinase activation”.

Consider `COc1cc2ncnc(Nc3cccc(Cl)c3)c2cc1OC` [AG1478], for which, in assay [3] (preincubation with 100 nM for 1 hour), the “levels of phospho-ERK1/2 induced by either HF or EGF” value is reported as “decreased levels of phospho-ERK1/2”.
